Measurements published in patent publication US20160354359A1, “C[…]-[…] A NET INHIBITOR FOR ADM[…] A BRAIN-DEAD, HEART-BEATING POTENTIAL ORGAN DONOR” (VIVOLINE MEDICAL AB, priority 2008, published 2016).

Legend:
[1] = in vivo; cited from earlier work
[2] = test system: blood pressure; details: in vivo; cited from earlier work
[3] = target: NET (norepinephrine transporter) (Homo sapiens, UniProt P23975); details: cited from earlier work
[4] = test system: brain-dead body of a pig; details: adrenaline and noradrenaline at constant 0.4 ml/hour
Procedure: In this experiment, adrenaline and noradrenaline was added at a constant rate of 0.4 ml/hour.

[5] = test system: brain-dead, heart-beating, respirated donor; details: blood circulation
Procedure: In order to test this hypothesis, other NET inhibitors were tested, such as desipramine and imipramine, which both are known to be NET inhibitors.

[6] = test system: brain-dead pigs; experiment: More than 20 experiments with pigs using cocaine in combination with adrenaline and noradrenaline, blood pressure over 24 hours; assay type: in vivo, pig; details: from initiation of the intervention and over 24 hours
From the text: The inventor has performed more than 20 experiments with pigs and using cocaine in combination with adrenaline and noradrenaline.

[7] = test system: brain-dead body of a pig; experiment: Experiment 2: infusion of desipramine solution with adrenaline and noradrenaline, blood pressure
Procedure: In addition 1 mg of adrenaline and 1 mg of noradrenaline was included in the solution.

[8] = test system: alpha-1; experiment: Potency as replacement of noradrenaline (alpha-1-agonist)
From the text: In some embodiments, the adrenaline and/or noradrenaline may be partly or entirely replaced by an equivalent substance. For example, phenylephrine is an alpha-1-agonist and may replace noradrenaline.

Chain of NET (norepinephrine transporter) (P23975 whole entry, species assumed): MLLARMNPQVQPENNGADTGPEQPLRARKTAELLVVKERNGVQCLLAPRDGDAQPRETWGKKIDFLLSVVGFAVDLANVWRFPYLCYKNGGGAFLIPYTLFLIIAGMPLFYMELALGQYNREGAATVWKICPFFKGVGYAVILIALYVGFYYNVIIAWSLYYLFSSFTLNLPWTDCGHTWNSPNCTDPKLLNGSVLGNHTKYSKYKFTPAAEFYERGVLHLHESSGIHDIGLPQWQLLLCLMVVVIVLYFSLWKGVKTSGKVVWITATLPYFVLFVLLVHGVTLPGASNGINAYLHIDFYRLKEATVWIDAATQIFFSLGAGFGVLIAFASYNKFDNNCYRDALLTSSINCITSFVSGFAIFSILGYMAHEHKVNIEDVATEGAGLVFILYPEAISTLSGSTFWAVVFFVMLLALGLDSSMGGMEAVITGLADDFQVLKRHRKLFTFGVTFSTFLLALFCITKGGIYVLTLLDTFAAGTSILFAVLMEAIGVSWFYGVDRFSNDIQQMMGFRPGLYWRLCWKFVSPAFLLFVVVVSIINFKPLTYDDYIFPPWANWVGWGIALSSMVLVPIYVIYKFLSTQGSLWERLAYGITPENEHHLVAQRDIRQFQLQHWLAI

Question: With `NC(=O)CC[C@@H]1NC(=O)[C@H](Cc2ccccc2)NC(=O)[C@H](Cc2ccc(O)cc2)NC(=O)[C@@H](N)CSSC[C@@H](C(=O)N2CCC[C@H]2C(=O)N[C@@H](CCCN=C(N)N)C(=O)NCC(N)=O)NC(=O)[C@H](CC(N)=O)NC1=O` [ADH, vasopressin] as the molecule, how does the half-life-time [1] read?
Answer: The half-life-time was “about 15 minutes”.

Question: Which “effect of infusion on blood pressure” value [2] does the source give for `CCN(CC)CC(=O)Nc1c(C)cccc1C` [Lidocaine] here?
Answer: The value was “vasodilatation and a lowering of the blood pressure”.

Question: With `CNCCCN1c2ccccc2CCc2ccc(Cl)cc21` [Norclomipramine] as the molecule, how does the “potency among typical NET inhibitors” value [3] read?
Answer: Its value is “highest”.

Question: With `CNCCCC1c2ccccc2C=Cc2ccccc21` [Protriptylin, Protriptyline] as the molecule, how does the “potency among typical NET inhibitors” value [3] read?
Answer: The value was “highest”.

Question: With `COC(=O)[C@H]1[C@@H](OC(=O)c2ccccc2)C[C@@H]2CC[C@H]1N2C` [cocaine, benzoylmethyl ecgonine] as the molecule, how does the half-life time [1] read?
Answer: Its half-life time is “about 1 hours”.

Question: What about the “effect of bolus on blood pressure” value ([4]; bolus of 2 mg at 21 hours) of the same molecule?
Answer: Its value is “increase of the blood pressure”.

Question: What about the “time after which the effect of the bolus ceased” value ([4]; bolus of 2 mg at 21 hours) of the same molecule?
Answer: The value was “about 3 hours”.

Question: What about the “effect of addition together with noradrenaline on noradrenaline needed for vasoconstriction” value [5] of the same molecule?
Answer: The value was “much lower levels of noradrenaline”.

Question: What about the “blood pressure maintained at a constant level” value [6] of the same molecule?
Answer: The value was 70 mmHg.

Question: With `CNCCCN1c2ccccc2CCc2ccccc21` [desipramine, Desipramine] as the molecule, how does the half-life time [1] read?
Answer: Its half-life time is 30 h.

Question: What about the “mean pressure reached on infusion” value ([7]; 3 mg desipramine, 1 mg adrenaline, 1 mg noradrenaline in 50 ml, 1.7 then 3.2 ml/hour, from a mean pressure of about 40 mmHg) of the same molecule?
Answer: The value was 80 mmHg.

Question: What about the “blood pressure after infusion rate was decreased” value ([7]; infusion decreased to 2.5 then 1.7 ml/hour, never decreased further) of the same molecule?
Answer: Its value is “about 60 mmHg”.

Question: For `CN(C)CCCN1c2ccccc2CCc2ccccc21` [imipramine, Imipramine], which “blood pressure reached after bolus” value ([4]; bolus at 24.5 hours, from about 80 mmHg) is on record?
Answer: The value was “about 100 mmHg”.

Question: With `CNC[C@H](O)c1cccc(O)c1` [phenylephrine] as the molecule, how does the “times less potent as noradrenaline” value [8] read?
Answer: The value was “about 5 times”.
